What all share (assay): relative viability (nuclei count vs DMSO), 5 days (fraction); higher = more cells survive
Compound in the test “Bleomycin + Pictilisib”: CC1=C(N=C(N=C1N)[C@H](CC(=O)N)NC[C@@H](C(=O)N)N)C(=O)N[C@@H]([C@H](C2=CN=CN2)OC3C(C(C(C(O3)CO)O)O)OC4C(C(C(C(O4)CO)O)OC(=O)N)O)C(=O)N[C@H](C)[C@H]([C@H](C)C(=O)N[C@@H]([C@@H](C)O)C(=O)NCCC5=NC(=CS5)C6=NC(=CS6)C(=O)NCCC[S+](C)C)O [Bleomycin] + CS(=O)(=O)N1CCN(Cc2cc3nc(-c4cccc5[nH]ncc45)nc(N4CCOCC4)c3s2)CC1 [Pictilisib] (partner 1 µM)
The following applies: main component drawn. The procedure, abridged:
(§1)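 Relative viability equals treated-well nuclei counts divided by vehicle-well nuclei counts. Counts came from 4× images of lung cancer cell lines grown in 1536-well plates for 5 days after pin-tool dosing on the day after seeding. Dosing used one drug alone or a fixed anchor-drug dose plus five library-drug doses (not always all listed) in √10 steps, and values are medians of duplicate plates.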

Compound in the test “Etoposide + Foretinib”: COc1cc([C@@H]2c3cc4c(cc3[C@@H](O[C@@H]3O[C@@H]5CO[C@@H](C)O[C@H]5[C@H](O)[C@H]3O)[C@H]3COC(=O)[C@H]23)OCO4)cc(OC)c1O [Etoposide] + COc1cc2c(Oc3ccc(NC(=O)C4(C(=O)Nc5ccc(F)cc5)CC4)cc3F)ccnc2cc1OCCCN1CCOCC1 [Foretinib] (partner 0.25 µM)
Summed up:
as §1

Compound in the test “Etoposide + Lapatinib”: COc1cc([C@@H]2c3cc4c(cc3[C@@H](O[C@@H]3O[C@@H]5CO[C@@H](C)O[C@H]5[C@H](O)[C@H]3O)[C@H]3COC(=O)[C@H]23)OCO4)cc(OC)c1O [Etoposide] + CS(=O)(=O)CCNCc1ccc(-c2ccc3ncnc(Nc4ccc(OCc5cccc(F)c5)c(Cl)c4)c3c2)o1 [Lapatinib] (partner 2 µM)
The procedure, abridged: as §1

Compound in the test “Etoposide + Vorinostat”: COc1cc([C@@H]2c3cc4c(cc3[C@@H](O[C@@H]3O[C@@H]5CO[C@@H](C)O[C@H]5[C@H](O)[C@H]3O)[C@H]3COC(=O)[C@H]23)OCO4)cc(OC)c1O [Etoposide] + O=C(CCCCCCC(=O)Nc1ccccc1)NO [Vorinostat] (partner 1 µM)
The procedure, abridged:
as §1

As to UMC-11, the relative viability with Bleomycin + Pictilisib (first compound 0.01 µM) was found to be 0.842; with Bleomycin + Pictilisib (first compound 0.03162 µM) it was 0.661; with Bleomycin + Pictilisib (first compound 0.1 µM), 0.827; in the test with Bleomycin + Pictilisib (first compound 0.3162 µM), 0.66; with Bleomycin + Pictilisib (first compound 1 µM), 0.577; with Etoposide + Foretinib (first compound 0.01 µM), 1.1. The relative viability in the test with Etoposide + Foretinib (first compound 0.03162 µM) is 1.17; in the test with Etoposide + Foretinib (first compound 0.1 µM), 0.928; with Etoposide + Foretinib (first compound 0.3162 µM), 0.566; with Etoposide + Foretinib (first compound 1 µM), 0.322; with Etoposide + Lapatinib (first compound 0.01 µM), 0.973; with Etoposide + Lapatinib (first compound 0.03162 µM) it was 1.05. For the same cell line, the relative viability was found to be 0.407 with Etoposide + Lapatinib (first compound 0.1 µM); 0.46 with Etoposide + Lapatinib (first compound 0.3162 µM); 0.239 with Etoposide + Lapatinib (first compound 1 µM); 0.373 with Etoposide + Vorinostat (first compound 0.01 µM); 0.376 in the test with Etoposide + Vorinostat (first compound 0.03162 µM); 0.323 in the test with Etoposide + Vorinostat (first compound 0.1 µM). Also, the relative viability with Etoposide + Vorinostat (first compound 0.3162 µM) was 0.228; with Etoposide + Vorinostat (first compound 1 µM), 0.199.

Values taken from the supplement of paper PMC10307832.
